Test results taken from patent US5061720A, “Substituted-4-thiazolidinone derivatives” (A. H. Robins Company, Inc., priority 1989, dated 1991).
pIC50: −log10 of the molar value.

Assays:
5-lipoxygenase = molecular target: T1, 5-lipoxygenase (Homo sapiens, UniProt P09917); assay: 5-Lipoxygenase Assay (production of 5-HETE from arachidonic acid in polymorphonuclear leukocytes stimulated by A23187); format: cell-based; conditions: inhibition of production of 5-HETE, human PMN cells, calcium ionophore A23187, 37° C.
T1 construct: Polymorphonuclear leukocytes were obtained from whole human blood; endogenous in cells; host or cells: human polymorphonuclear leukocytes from whole blood, stimulated with A23187
T1 sequence (P09917 1-674): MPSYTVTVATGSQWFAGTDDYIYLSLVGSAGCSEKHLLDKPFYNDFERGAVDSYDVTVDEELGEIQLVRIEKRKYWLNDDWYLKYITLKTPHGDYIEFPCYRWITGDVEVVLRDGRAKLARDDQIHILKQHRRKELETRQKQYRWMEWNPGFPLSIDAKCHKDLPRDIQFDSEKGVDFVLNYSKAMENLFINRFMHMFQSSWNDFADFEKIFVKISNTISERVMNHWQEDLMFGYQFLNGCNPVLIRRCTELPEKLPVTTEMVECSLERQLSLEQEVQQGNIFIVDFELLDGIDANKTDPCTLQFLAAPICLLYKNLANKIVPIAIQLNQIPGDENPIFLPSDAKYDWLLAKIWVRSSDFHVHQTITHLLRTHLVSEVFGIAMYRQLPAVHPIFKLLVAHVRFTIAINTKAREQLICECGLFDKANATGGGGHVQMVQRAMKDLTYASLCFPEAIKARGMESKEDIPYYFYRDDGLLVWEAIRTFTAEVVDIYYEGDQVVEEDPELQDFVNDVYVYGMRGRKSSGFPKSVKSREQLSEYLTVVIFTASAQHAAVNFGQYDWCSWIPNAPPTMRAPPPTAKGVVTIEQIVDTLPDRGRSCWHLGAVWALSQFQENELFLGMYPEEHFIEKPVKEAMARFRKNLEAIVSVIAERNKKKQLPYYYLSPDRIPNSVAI
Method: The production of 5-HETE from arachidonic acid in human polymorphonuclear leukocytes stimulated by the calcium ionophore A23187 (Calbiochemicals) was measured by reverse phase high pressure liquid chromatography. This procedure is a modification of the procedure of Sun and McGuire, PROSTAGLANDINS, 26, 211-221 (1983). Addition of substances to the test system that inhibit 5-lipoxygenases cause a decrease in the production of 5-HETE and is thus determined in comparison to reference and control articles also added to the reaction system.
Polymorphonuclear leukocytes were obtained from whole human blood by the procedure of Skoog and Beck, BLOOD, 11, 436-454 (1956). […] The tube is incubated for an additional 10 min at 37° C. and the incubations terminated by addition of 1.5 mL of acetone and cooling to 0° C. 13-Hydroxyoctadecatrienoic acid (13-HODT) (5 μL of 0.2 mM methanolic solution) is added for an internal reference standard. The tube is stored at -20° C. under argon for 4-18 hr. Centrifugation at 1000×g for 10 min causes protein precipitate to form a pellet. The acetone layer is evaporated under a stream of nitrogen and the resultant lipid residue containing the arachidonic acid metabolites and 13-HODT is dissolved in 0.5 mL of methanol and stored at -20° C. until analyzed by high-pressure liquid chromatography (HPLC).
For analysis, a 150-μL aliquot of the methanol solution is evaporated under a stream of argon. The residue is reconstituted with 100 μL of a 1:1 methanol-water mixture and sonified for 15-20 seconds and the mixture analyzed by HPLC (C18 reversed phase Econophere column, methanol:water:acetic acid 79:25:0.2 v/v/v used for elution). Test, reference, and control articles are evaluated in duplicate. The inhibition is reported as that concentration which will inhibit by 50% the production of 5-HETE.

guinea pig skin = assay: UV-Erythema in Guinea Pigs; format: in vivo; set-up: key: +: active; -: inactive; conditions: topical, 50 μL of cream with 1.0 mg test article per 1 g, immediately after UV exposure; active = composite score significantly lower than control, Dunnett's t-test p≤0.05
Method: I. Preparation of Formulation (cream)
All drugs tested were prepared by thoroughly incorporating 1.0 mg of the test article into 1 g of a pH 7.0 cream vehicle of the following composition.
methyl glucose sesquistearate 1.6%
methyl gluceth-20 sesquistearate 2.4%
emulsifying wax, N.F. 5.0%
mineral oil (heavy), U.S.P. 1.0%
white petrolatum, U.S.P. 5.0%
stearic acid, U.S.P. 2.5%
sodium benzoate, N.F. 0.1%
magnesium aluminum silicate 1.5%
deionized water, pH 7.0 64.8%
The preparations were packed into 1-cc plastic syringes.
II. Pharmacological Assay
The backs of female, English short hair guinea pigs (250-500 g) were shaved and depilated with Nair®. Control and treated groups each consisted of 5 animals, and selection of the animals and the control and treatment groups was achieved by random procedures. A rubber sheet with three one-half inch holes spaced one-half inch apart was draped over backs of the guinea pigs. The guinea pigs were then exposed to ultraviolet (UV) light (Hanovia Model 10, ~650-800 μW/cm^2) for 15 seconds by holding the animals against the light source. Fifty μL of the test drug or reference drug (indomethacin or bromfenac) preparation were immediately rubbed onto the skin, either on the area exposed to UV light or to an area adjacent to the UV light exposed skin. The degree of erythema for each exposed area was scored at various times following exposure according to the following scale:
1=slight redness with faint outline
2=moderate to marked redness with distinct outline
The score was totaled for each guinea pig (maximum score is 6). The Dunnett's t-test was used to determine significant (p≤0.05) differences from the control (placebo treated) group.

SMILES	pIC50 (5-lipoxygenase)	U.V. erythema (+ = active, - = inactive) (guinea pig skin)
CCCC[C@@H]1S[C@H](c2cccc(Oc3ccccc3)c2)N(CCCCCC(=O)OCC)C1=O (relative stereo) [Example 51]	~4.82	-
CCCC[C@@H]1S[C@@H](c2cccc(Oc3ccccc3)c2)NC1=O (relative stereo) [Example 83, 5-Butyl-2-(3-phenoxyphenyl)-4-thiazolidinone]	> 5.00	-
CCCCC1SC(c2cccc(Oc3ccccc3)c2)N(CCCCc2ccccc2)C1=O (centres unmarked) [Example 1, 5-Butyl-2-(3-phenoxyphenyl)-3-(4-phenylbutyl)-4-thiazolidinone]	< 4.00	+
CC1SC(c2cccc(Oc3ccccc3)c2)N(CCCCc2ccccc2)C1=O (centres unmarked) [Example 7, 5-Methyl-2-(3-phenoxyphenyl)-3-(4-phenylbutyl)-4-thiazolidinone]	> 4.70	+
CCCCC1SC(c2cccc(C(=O)c3ccccc3)c2)N(CCCCc2ccccc2)C1=O (centres unmarked) [Example 8, 2-(3-Benzoylphenyl)-5-butyl-3-(4-phenylbutyl)-4-thiazolidinone]	~4.00	+
CCCCC1SC(c2cccc(Oc3ccccc3)c2)N(CCc2ccccc2)C1=O (centres unmarked) [Example 17, 5-Butyl-2-(3-phenoxyphenyl)-3-(2-phenylethyl)-4-thiazolidinone]	5.00	-
CCCCC1SC(c2cccc(Oc3ccccc3)c2)N(CCCCC(=O)O)C1=O (centres unmarked) [Example 45, 5-Butyl-4-oxo-2-(3-phenoxyphenyl)-3-thiazolidinepentanoic acid]	~4.82	+
